The source of these data is patent US10201157B2 (priority 2013, dated 2019).

Experiment [1] deals with wireworm (Melanotus communis). In words: Test B.1.1 control of wireworm, direct contact (dip) method. Format: in vivo. The note with it: mortality 3 DAT. As to the method: For evaluating control of wireworm (Melanotus communis) through direct contact method, the individual insects were dipped directly into compound solution.
The compounds or mixtures were dissolved in acetone at different concentrations. The compounds or mixtures were formulated using a solution containing 50% (v/v) acetone in water with 0.02 wt % Kinetic®.
For the experimental mixtures, identical volumes of both mixing partners were mixed together to achieve the desired respective concentrations. Wireworms were dipped directly into solution for three seconds and then allowed to air dry on filter paper.
About 11 cm^3 of water-moistened loamy sand was dispensed into each 16-cm^2 cell of a 32-cell rearing tray. One treated wireworm larva was infested into each cell along with two germinating wheat seeds. Cells were then covered with adhesive bio-assay tray lids. Each cell was a replicate and replication was 10×. After infestation, the test was maintained in an incubator at 26±1° C. in the dark. Mortality (dead+moribund insects) was evaluated 3 days after treatment (DAT) and mean percent mortality was calculated relative to the untreated control.

Experiment [2] concerns western corn rootworm (Diabrotica virgifera virgifera). Description: Test B.1.2 control of western corn rootworm, maximum exposure to treated soil. Format: in vivo. The note with it: mortality 3 DAI. An excerpt: For evaluating control of western corn rootworm (Diabrotica virgifera virgifera) through maximum exposure method, the insects were exposed to treated soil.
The compounds or mixtures were first dissolved in acetone, and then mixed with soil to obtain the desired different ppm concentrations (w/w) of compound/soil or mixture/soil. For experimental mixtures, identical volumes of both mixing partners were mixed together to achieve the desired respective concentrations. Treatments were applied in solution to sifted (#10 sieve) loamy sand in a plastic bag. Treatments were thoroughly incorporated by sealing and shaking each bag by hand and allowing the solution to soak through the soil mass for at least 10 minutes. Bags were then unsealed and kept open in a fume hood overnight to evaporate the solvent from the soil.
One day after treatment (DAT) water for moisture and water-soaked millet seed as a food source were added to each bag and incorporated thoroughly. About 11 cm^3 of the millet and soil mixture was dispensed into a 1-oz. plastic cup. Each cup was infested with 10 western corn rootworm second-instar larvae and covered. Each cup was a replicate and replication was 3×. The test was maintained in an incubator at 26±1° C. in the dark. Mortality (dead+moribund insects) was evaluated 3 days after infestation (DAI) and mean percent mortality was calculated relative to the untreated control.

The test system of experiment [3] is seedcorn maggot (Della platura). Description: Test B.1.4 control of seedcorn maggot, maximum exposure to treated soil. Particulars: mortality 2 DAT. Format: in vivo.
Source text: For evaluating control of seedcorn maggot (Della platura) through maximum exposure, the insects were exposed to treated soil.
The compounds or mixtures were first dissolved in acetone, and then mixed with soil to obtain the desired different ppm concentrations (w/w) of compound/soil or mixture/soil. For experimental mixtures, identical volumes of both mixing partners were mixed together to achieve the desired respective concentrations. Treatments were applied in solution to dry, sifted (#10 sieve) play sand in a glass jar. Treatments were thoroughly incorporated by capping and shaking each jar by hand and allowing the solution to soak through the sand mass for at least 10 minutes. The jars were then uncapped and the sand was kept in a fume hood for 4 hours to evaporate the solvent.
After the sand was dry, 10 cm^3 of the treated sand was dispensed into a 1-oz. plastic cup with bone meal in the bottom as a food source. Each cup was moistened with 4 ml water, infested with five seedcorn maggot second-instar larvae, and covered. Each cup was a replicate and replication was 5×. The test was maintained in an incubator at 22±1° C. in the dark. Mortality (dead+moribund insects) was evaluated 2 days after treatment (DAT) and mean percent mortality was calculated relative to the untreated control.
Experiment [4] has as its system black cutworm (Agrotis ipsilon). In words: Test B.1.3 control of black cutworm, direct contact (dip) method. Format: in vivo. The note with it: for Average Control % 1 DAT: mortality 1 DAT; for Average Control % 5 DAT: mortality 5 DAT. On the procedure:
For evaluating control of black cutworm (Agrotis ipsilon) through direct contact method, the individual insects were dipped directly into compound solution.
The compounds or mixtures were dissolved in acetone at different concentrations. The compounds or mixtures were formulated using a solution containing 50% (v/v) acetone in water with 0.02 wt % Kinetic®. For experimental mixtures, identical volumes of both mixing partners were mixed together to achieve the desired respective concentrations. Second-instar black cutworms were dipped directly into solution for three seconds and then allowed to air dry on filter paper. One treated black cutworm larva was infested into each 16-cm^2 cell of a 32-cell rearing tray along with the excised shoot of a corn plant and a moistened cotton wick. Cells were then covered with adhesive bio-assay tray lids. Each cell was a replicate and replication was 16×. After infestation, the test was maintained in an incubator at 25.5±1° C. and a 14L:10D light cycle. Mortality (dead+moribund insects) was evaluated 1 and 5 days after treatment (DAT) and mean percent mortality was calculated relative to the untreated control.

The subject of another experiment is Alternaria solani. In words: B.2.2 microtest, activity against early blight. Format: cell-based. Particulars: MTP, 7 days after inoculation.
The next experiment relates to Microdochium nivale. In words: B.2.3 microtest, activity against Microdochium nivale. Particulars: MTP, 7 days after inoculation. Format: cell-based.
The subject of experiment [5] is root-knot nematodes (Meloidogyne spp.). In words: Test B.1.5 control of root-knot nematodes, drench application on cucumber plants. The experiment is classed as in vivo. Particulars: four weeks after infestation. On the procedure: For evaluating control of root-knot nematodes (Meloidogyne spp.) through exposure via drench application, the nematodes were introduced to treated cucumber plants.
The compounds or mixtures were dissolved in acetone at different concentrations. The compounds or mixtures were formulated using a solution containing 50% (v/v) acetone in water with 0.02 wt % Kinetic®. For experimental mixtures, identical volumes of both mixing partners were mixed together to achieve the desired respective concentrations.
Germinated cucumber seeds were planted in 1-oz black plastic cups (one seed per cup) with dry, sifted (#10 sieve) play sand. Treatments were applied as a drench in 7 ml solution to each cup which were held in a fume hood for 1 hour to allow acetone to evaporate. The cups were moved to an environmental chamber (25±2° C., 24 L) and watered daily for the duration of the test. Each cup was a replicate and replication was 5×. At the cucumber's cotyledon stage, each cup was infested with 500 root-knot nematode juveniles (J2s) in 1 ml distilled water.
Four weeks after infestation, cucumber roots were washed off and galls and egg masses were counted. Control was calculated as the reduction in galls or egg masses relative to the untreated control. Mean percent control was calculated for each treatment.

A further experiment has as its system Pyricularia oryzae. Format: cell-based. The note with it: MTP, 7 days after inoculation.
The next experiment has as its system Rhizoctonia solani. In words: B.2.4 microtest, activity against Rhizoctonia solani. Format: cell-based. The note with it: MTP, 7 days after inoculation.

Read-outs that look alike come from different tables or passages of the source.

For `CNC(=O)c1cc(C#N)cc(C)c1NC(=O)c1cc(Br)nn1-c1ncccc1Cl` [Cyantraniliprole, cyantraniliprole], the “Average Control %” value is 22% in experiment [1] (225 ppm), 23% in experiment [2] (3.1 ppm compound/soil) and 64% in experiment [3] (10 ppm compound/soil).
In the case of `N#Cc1nn(-c2c(Cl)cc(C(F)(F)F)cc2Cl)c(N)c1[S+]([O-])C(F)(F)F` (centres unmarked) [Fipronil], the “Average Control %” value in [1] (30 ppm) was found to be 22%; in [2] (0.03 ppm compound/soil), 27%. In addition, the “Average Control % 1 DAT” value in [4] (300 ppm) worked out at 13%. Moreover, the “Average Control % 5 DAT” value in experiment [4] (300 ppm) is 31%.
For the molecule `N#C/N=C1\SCCN1Cc1ccc(Cl)nc1` [Thiacloprid], in experiment [2] (0.2 ppm compound/soil), the “Average Control %” value was found to be 37%.
For `O=[N+]([O-])NC1=NCCN1Cc1ccc(Cl)nc1` [Imidacloprid], the “Average Control %” value was 17% in [2] (0.13 ppm compound/soil) and 18% in experiment [3] (3 ppm compound/soil).
Turning to `COC(=O)N(OC)c1ccccc1COc1ccn(-c2ccc(Cl)cc2)n1` [Pyraclostrobin], the results for the Observed efficacy in the experiment on Alternaria solani (0.016 ppm), in the experiment with Alternaria solani (0.063 ppm) and with Microdochium nivale (0.016 ppm) were 0, 12 and 46, respectively.
For the molecule `CN/C(=N\[N+](=O)[O-])NCc1cnc(Cl)s1` [Clothianidin], the “Average Control %” value in [2] (0.1 ppm compound/soil) is 33%.
As for Abamectin, in experiment [5] (0.008 mg compound/plant), the “Average Egg Mass Control %” value is 17% and the “Average Gall Control %” value is listed as 24%. In addition, in experiment [5] (0.017 mg compound/plant), the “Average Egg Mass Control %” value is reported as 39% and the “Average Gall Control %” value was found to be 40%.
As for `Fc1ccc([C@]2(Cn3cncn3)O[C@H]2c2ccccc2Cl)cc1` (racemic) [Epoxiconazol, Epoxiconazole], the Observed efficacy with Pyricularia oryzae (0.063 ppm) is listed as 1; in the experiment with Pyricularia oryzae (0.25 ppm), 28; with Microdochium nivale (0.004 ppm), 8; in the experiment on Microdochium nivale (0.016 ppm), 29; with Rhizoctonia solani (0.001 ppm), 0; with Rhizoctonia solani (0.004 ppm) it was 0. Further, the Observed efficacy in the experiment with Rhizoctonia solani (0.016 ppm) came to 24.
As to emamectin, the “Average Control %” value in experiment [1] (800 ppm) is 11%.
Turning to `CN1COCN(Cc2cnc(Cl)s2)/C1=N\[N+](=O)[O-]` [Thiamethoxam], in experiment [1] (25 ppm), the “Average Control %” value was 11%.
As to `Cn1cc(C(=O)Nc2ccccc2-c2cc(F)c(F)c(F)c2)c(C(F)F)n1` [Fluxapyroxad], the Observed efficacy with Microdochium nivale (0.004 ppm) and in the experiment on Microdochium nivale (0.063 ppm) was 0 in each case.
On to `CC1(C)CCC(=Cc2ccc(Cl)cc2)C1(O)Cn1cncn1` (centres unmarked) [Triticonazol, Triticonazole], for which the values for the Observed efficacy in the experiment with Alternaria solani (0.25 ppm), in the experiment with Alternaria solani (1 ppm) and in the experiment on Rhizoctonia solani (0.25 ppm) were 0, 23 and 41, respectively.
`CN(C(=O)c1ccccc1)c1cccc(C(=O)Nc2c(Br)cc(C(F)(C(F)(F)F)C(F)(F)F)cc2C(F)(F)F)c1F` [Carboxamide compound of formula I]: the “Average Control %” value in [1] (3 ppm) is reported as 33%; in experiment [2] (0.01 ppm compound/soil) it was 30%; in [3] (0.06 ppm compound/soil) it was 21%. In addition, the “Average Control % 1 DAT” value in [4] (3 ppm) was 38%. Further, in experiment [4] (3 ppm), the “Average Control % 5 DAT” value is given as 44%. The “Average Egg Mass Control %” value in [5] (0.3 mg compound/plant) is on record as −21%. For the same molecule, in experiment [5] (0.3 mg compound/plant), the “Average Gall Control %” value amounted to 35%. For the same molecule, the Observed efficacy was 2 in the experiment with Pyricularia oryzae (0.063 ppm); 12 with Pyricularia oryzae (1 ppm); 15 in the experiment with Pyricularia oryzae (4 ppm); 4 in the experiment with Pyricularia oryzae (16 ppm); 0 in the experiment with Alternaria solani (1 ppm); 0 in the experiment on Alternaria solani (4 ppm). Further, the Observed efficacy with Alternaria solani (16 ppm) came out at 0; in the experiment with Alternaria solani (63 ppm) it was 0; in the experiment on Microdochium nivale (4 ppm), 13; in the experiment with Microdochium nivale (16 ppm), 15; in the experiment with Microdochium nivale (63 ppm), 4; in the experiment with Rhizoctonia solani (1 ppm), 0. Moreover, the Observed efficacy with Rhizoctonia solani (4 ppm) and in the experiment on Rhizoctonia solani (16 ppm) was 0 throughout.
